# How the values were obtained:
# JAK1 aa583-1154 wt = target: T1, JAK1 aa583-1154 wt (Homo sapiens, UniProt P23458); test: Kinase Profiler single-point (1 uM) inhibition; type: biochemical
# T1 construct: JAK1 aa583-1154 wt; purchased ProQinase
# RAF1 = target: T2, RAF1 (Homo sapiens, UniProt P04049, Y340D/Y341D); test: Kinase Profiler single-point (1 uM) inhibition; type: biochemical; settings: 1 uM compound, read-out: residual activity class (FIG. 3)
# T2 construct: purchased ProQinase, Freiburg, Germany (Kinase Profiler service)
# PANC-1-luc cells = test: Sensitisation of tumour cells to in-vitro TNF attack (luciferase-based killing assay); type: cell-based, human; settings: compound plus rHuTNF (10 ng/mL) vs compound alone; FIG. 6
# Protocol: R&D Systems), and also the speed of onset of this effect. PANC1-luc is an HLA-A2.1+ luciferase-expressing pancreatic adenocarcinoma (PDAC) tumour cell line, and […]-A2-luc is an HLA-A2.1+ luciferase-expressing melanoma tumour cell line. […] After lysis, luciferase assay buffer is added and immediately the luciferase intensity was measured by using the TECAN-Spark microplate reader. The PANC1-luc cell line is constructed as follows: PANC-1 cells acquired from the American Type Cell Culture (ATCC). Tumour cells are transfected with a pEGFP-Luc plasmid, using TransIT-LT1 (Mirus) as transfection reagent. Transfected cells are selected with 1 mg/mL of G418/Geneticin, and 14 days after selection EGFP+ cells are sorted using, eg a BD […] II cell sorter.
# KU812 tumours = settings: large KU812 tumours; 50 mg/kg/day for 5 days; cited from earlier work
# K562 CML cells = settings: similar study, cited from earlier work
# SIK1 = target: T3, SIK1 (Homo sapiens, UniProt P57059); test: 33PanQinase radiometric protein kinase assay (IC50); type: biochemical
# T3 construct: purchased ProQinase
# Protocol: (§1) Incorporation of 33Pi was determined with a microplate scintillation counter (Microbeta, Wallac).
# SIK2 = target: T4, SIK2 (Homo sapiens, UniProt Q9H0K1); test: as above; type: biochemical
# T4 construct: purchased ProQinase
# Protocol: as §1
# SIK3 = target: T5, SIK3 (Homo sapiens, UniProt Q9Y2K2); test: as above; type: biochemical
# T5 construct: purchased ProQinase
# Protocol: as §1
# M579-A2-luc cells = test: Sensitisation of tumour cells to in-vitro TNF attack (luciferase-based viability readout); type: cell-based, human; settings: TNF 10 ng/mL; compound between about 10 and 100 nM; FIG. 7
# Protocol: PANC1-luc is an HLA-A2.1+ luciferase-expressing pancreatic adenocarcinoma (PDAC) tumour cell line, and M579-A2-luc is an HLA-A2.1+ luciferase-expressing melanoma tumour cell line.
# After lysis, luciferase assay buffer is added and immediately the luciferase intensity was measured by using the TECAN-Spark microplate reader.
# [1] = Human liver microsomal stability; type: in vitro ADME
# [2] = Mouse liver microsomal stability; type: in vitro ADME; settings: liver microsomes, read-out: Intrinsic clearance
# in vitro = settings: dog, MDCK
# MDR1 = test: in vitro; settings: dog, MDCK-MDR1
# ABL1 wt = target: T6, ABL1 wt (Homo sapiens, UniProt P00519); test: 33PanQinase radiometric protein kinase assay (IC50); type: biochemical
# T6 construct: the ABL1 wild-type protein (amino acids P118-S525); purchased ProQinase
# T6 sequence (P00519 118-535 limits assumed): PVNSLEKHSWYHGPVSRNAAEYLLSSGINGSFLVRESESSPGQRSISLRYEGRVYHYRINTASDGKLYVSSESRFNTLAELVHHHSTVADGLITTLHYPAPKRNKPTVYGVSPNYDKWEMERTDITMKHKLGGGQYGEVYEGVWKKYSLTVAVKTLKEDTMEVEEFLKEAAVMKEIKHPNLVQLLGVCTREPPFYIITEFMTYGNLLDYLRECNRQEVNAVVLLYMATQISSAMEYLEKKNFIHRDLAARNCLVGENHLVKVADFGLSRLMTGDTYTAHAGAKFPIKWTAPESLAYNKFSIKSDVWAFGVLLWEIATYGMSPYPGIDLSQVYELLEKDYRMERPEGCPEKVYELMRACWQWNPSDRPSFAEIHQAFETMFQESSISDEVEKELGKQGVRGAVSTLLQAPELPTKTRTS
# Protocol: as §1
# SRC = target: T7, SRC (Homo sapiens, UniProt P12931); test: as above; type: biochemical
# T7 construct: GST; HIS; purchased ProQinase (inferred from the trademark)
# Protocol: as §1
# K562 human CML tumours = settings: high doses; cited from earlier work
# T4 sequence (Q9H0K1 whole entry): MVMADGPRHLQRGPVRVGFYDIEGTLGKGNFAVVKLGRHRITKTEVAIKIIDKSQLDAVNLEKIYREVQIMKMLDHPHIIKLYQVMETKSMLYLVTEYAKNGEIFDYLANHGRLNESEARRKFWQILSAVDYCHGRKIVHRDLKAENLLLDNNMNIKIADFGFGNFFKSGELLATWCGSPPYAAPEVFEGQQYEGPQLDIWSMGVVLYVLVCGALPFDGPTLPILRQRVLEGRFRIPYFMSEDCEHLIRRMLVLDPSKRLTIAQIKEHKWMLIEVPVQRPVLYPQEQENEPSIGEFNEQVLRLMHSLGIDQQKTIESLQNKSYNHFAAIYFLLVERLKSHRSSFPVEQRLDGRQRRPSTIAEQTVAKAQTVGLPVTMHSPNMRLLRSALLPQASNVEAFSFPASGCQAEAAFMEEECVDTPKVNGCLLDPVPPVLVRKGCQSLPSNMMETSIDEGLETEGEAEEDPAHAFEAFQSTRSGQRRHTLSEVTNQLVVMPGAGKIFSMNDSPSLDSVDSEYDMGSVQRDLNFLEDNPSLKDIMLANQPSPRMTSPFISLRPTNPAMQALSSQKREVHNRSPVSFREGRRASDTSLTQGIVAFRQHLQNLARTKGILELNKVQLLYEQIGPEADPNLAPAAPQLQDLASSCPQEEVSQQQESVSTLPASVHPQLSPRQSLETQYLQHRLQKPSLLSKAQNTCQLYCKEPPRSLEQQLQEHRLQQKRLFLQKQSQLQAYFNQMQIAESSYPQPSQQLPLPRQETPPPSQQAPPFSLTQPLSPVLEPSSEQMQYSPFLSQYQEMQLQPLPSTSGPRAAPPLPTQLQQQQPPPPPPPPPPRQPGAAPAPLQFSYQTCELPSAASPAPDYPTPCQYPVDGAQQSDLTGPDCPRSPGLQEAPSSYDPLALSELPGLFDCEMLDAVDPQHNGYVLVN
# T3 sequence (P57059 whole entry): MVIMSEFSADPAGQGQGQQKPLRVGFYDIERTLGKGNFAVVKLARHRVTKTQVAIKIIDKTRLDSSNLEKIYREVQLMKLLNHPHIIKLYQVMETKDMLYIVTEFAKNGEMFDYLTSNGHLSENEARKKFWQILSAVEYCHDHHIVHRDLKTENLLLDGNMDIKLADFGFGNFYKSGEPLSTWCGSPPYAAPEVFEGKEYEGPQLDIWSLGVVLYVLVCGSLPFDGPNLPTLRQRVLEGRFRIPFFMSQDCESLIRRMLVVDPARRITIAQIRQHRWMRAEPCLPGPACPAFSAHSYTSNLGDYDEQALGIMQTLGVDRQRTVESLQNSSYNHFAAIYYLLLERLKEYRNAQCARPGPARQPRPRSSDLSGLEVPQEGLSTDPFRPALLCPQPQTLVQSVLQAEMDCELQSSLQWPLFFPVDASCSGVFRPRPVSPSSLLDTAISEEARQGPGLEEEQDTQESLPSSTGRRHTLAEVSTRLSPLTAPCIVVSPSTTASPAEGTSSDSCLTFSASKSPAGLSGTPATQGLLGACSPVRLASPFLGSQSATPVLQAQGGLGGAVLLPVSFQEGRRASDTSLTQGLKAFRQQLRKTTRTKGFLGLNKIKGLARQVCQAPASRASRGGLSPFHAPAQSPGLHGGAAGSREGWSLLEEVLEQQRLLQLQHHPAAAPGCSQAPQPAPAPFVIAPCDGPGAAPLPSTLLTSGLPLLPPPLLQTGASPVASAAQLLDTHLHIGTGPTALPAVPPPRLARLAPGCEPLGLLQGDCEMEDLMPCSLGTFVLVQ
# T5 sequence (Q9Y2K2 whole entry): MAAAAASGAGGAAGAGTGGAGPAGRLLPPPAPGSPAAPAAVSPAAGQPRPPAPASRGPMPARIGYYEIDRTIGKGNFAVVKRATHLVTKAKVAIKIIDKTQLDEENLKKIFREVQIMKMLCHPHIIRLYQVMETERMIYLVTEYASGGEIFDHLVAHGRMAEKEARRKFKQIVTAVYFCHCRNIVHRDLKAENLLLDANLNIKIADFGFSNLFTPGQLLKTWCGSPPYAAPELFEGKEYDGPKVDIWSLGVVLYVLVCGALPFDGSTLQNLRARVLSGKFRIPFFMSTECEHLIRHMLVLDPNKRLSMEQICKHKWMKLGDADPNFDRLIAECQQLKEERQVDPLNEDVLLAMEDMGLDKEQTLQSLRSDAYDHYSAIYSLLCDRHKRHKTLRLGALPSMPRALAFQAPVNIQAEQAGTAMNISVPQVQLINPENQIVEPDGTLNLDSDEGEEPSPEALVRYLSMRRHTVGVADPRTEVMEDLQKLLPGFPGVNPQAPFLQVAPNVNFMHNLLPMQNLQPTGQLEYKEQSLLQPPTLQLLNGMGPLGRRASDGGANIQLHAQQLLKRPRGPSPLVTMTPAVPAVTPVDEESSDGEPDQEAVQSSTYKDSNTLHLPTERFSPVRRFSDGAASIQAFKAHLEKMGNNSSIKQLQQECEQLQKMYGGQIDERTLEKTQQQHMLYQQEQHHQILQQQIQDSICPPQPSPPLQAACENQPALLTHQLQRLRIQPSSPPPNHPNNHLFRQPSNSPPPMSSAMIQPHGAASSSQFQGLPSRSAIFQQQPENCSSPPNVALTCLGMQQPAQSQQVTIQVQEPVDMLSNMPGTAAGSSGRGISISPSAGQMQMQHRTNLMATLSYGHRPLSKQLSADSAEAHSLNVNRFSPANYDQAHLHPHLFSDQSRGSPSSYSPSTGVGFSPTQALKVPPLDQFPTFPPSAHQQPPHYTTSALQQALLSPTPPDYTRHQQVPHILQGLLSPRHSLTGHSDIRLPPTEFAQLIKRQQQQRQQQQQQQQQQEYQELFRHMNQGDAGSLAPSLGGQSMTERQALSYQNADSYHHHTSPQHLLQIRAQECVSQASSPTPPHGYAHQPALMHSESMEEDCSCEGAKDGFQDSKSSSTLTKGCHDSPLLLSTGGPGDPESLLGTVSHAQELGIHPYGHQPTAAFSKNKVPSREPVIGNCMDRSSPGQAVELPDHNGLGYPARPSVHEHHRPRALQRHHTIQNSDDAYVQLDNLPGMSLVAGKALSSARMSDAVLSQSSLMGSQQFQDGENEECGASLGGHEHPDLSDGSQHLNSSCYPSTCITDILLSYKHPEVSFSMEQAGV
# T1 sequence (P23458 583-1154): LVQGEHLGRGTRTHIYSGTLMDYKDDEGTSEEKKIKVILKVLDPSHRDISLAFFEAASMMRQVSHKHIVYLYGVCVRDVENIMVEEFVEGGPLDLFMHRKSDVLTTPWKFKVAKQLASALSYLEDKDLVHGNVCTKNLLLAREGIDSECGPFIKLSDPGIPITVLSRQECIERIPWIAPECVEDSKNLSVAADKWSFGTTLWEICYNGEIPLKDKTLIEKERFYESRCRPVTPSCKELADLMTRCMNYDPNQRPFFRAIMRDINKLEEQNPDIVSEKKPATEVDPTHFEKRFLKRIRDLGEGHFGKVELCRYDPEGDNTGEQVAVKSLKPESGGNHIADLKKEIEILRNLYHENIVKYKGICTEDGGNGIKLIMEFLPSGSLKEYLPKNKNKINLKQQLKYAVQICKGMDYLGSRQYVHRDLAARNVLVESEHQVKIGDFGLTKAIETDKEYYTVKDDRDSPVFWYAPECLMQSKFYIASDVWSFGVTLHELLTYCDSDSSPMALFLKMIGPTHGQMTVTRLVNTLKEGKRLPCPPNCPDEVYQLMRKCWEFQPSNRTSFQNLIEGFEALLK
# T7 sequence (P12931 whole entry): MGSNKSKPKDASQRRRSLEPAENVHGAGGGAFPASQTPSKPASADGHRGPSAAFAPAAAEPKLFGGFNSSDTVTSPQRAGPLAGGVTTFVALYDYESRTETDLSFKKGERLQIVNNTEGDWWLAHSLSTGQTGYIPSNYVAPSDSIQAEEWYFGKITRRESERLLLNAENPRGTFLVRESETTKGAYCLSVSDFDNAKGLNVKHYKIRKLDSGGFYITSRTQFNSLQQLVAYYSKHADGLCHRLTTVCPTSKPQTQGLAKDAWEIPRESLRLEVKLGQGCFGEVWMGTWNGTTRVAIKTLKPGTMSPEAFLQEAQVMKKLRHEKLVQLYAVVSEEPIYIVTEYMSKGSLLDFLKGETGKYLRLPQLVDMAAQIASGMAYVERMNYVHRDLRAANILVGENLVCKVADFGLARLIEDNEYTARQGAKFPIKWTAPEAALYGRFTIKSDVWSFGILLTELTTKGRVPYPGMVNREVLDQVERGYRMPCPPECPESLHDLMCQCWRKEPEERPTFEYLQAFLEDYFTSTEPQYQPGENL
# T2 sequence (P04049 307-648 Y340D/Y341D limits assumed): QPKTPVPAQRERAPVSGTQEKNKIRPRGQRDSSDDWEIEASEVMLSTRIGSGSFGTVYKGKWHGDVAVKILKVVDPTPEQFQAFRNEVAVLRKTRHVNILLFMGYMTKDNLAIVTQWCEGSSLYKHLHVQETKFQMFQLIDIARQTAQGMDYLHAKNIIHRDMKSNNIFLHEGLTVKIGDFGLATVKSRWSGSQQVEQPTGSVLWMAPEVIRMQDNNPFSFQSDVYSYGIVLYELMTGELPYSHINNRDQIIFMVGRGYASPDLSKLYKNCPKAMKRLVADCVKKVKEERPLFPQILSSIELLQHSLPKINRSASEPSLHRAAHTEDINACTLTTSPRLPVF
smiles,measurement,setting,value
"Cc1nc(Nc2ncc(C(=O)Nc3c(C)cccc3Cl)s2)cc(N2CCN(CCO)CC2)n1 [Compound A8, N-(2-chloro-6-methylphenyl)-2-((6-(4-(2-hydroxyethyl)piperazin-1-yl)-2-methylpyrimidin-4-yl)amino)thiazole-5-carboxamide]",Residual activity (%) at 1 uM,JAK1 aa583-1154 wt,41%
same,remaining activity at 1 µM,RAF1,< 25%
same,sensitisation of tumour cells to TNF attack,PANC-1-luc cells,sensitisation of tumour-cells to in-vitro TNF-attack
same,tumour response,KU812 tumours,curative
same,survival,K562 CML cells; 10 and 30 mg/kg/day,increased survival
"Cc1nc(Nc2ncc(C(=O)Nc3c(Cl)cccc3Br)s2)cc(N2CCN(CCO)CC2)n1 [Compound B1, N-(2-bromo-6-chlorophenyl)-2-((6-(4-(2-hydroxyethyl)piperazin-1-yl)-2-methylpyrimidin-4-yl)amino)thiazole-5-carboxamide]",inhibitory activity,SIK1,pan-SIK and ABL1 & SRC inhibitor
same,inhibitory activity,SIK2,pan-SIK and ABL1 & SRC inhibitor
same,inhibitory activity,SIK3,pan-SIK and ABL1 & SRC inhibitor
same,tumour cell cytotoxicity with TNF compared to inhibitor alone,M579-A2-luc cells,increased cytotoxicity
"Cc1nc(Nc2ncc(C(=O)Nc3c(Cl)ccnc3C)s2)cc(N2CCN(CCO)CC2)n1 [Compound B3, N-(4-chloro-2-methylpyridin-3-yl)-2-((6-(4-(2-hydroxyethyl)piperazin-1-yl)-2-methylpyrimidin-4-yl)amino)thiazole-5-carboxamide]","drug remaining at 40 min, times more than dasatinib",[1]; hLM assay,10 times
same,"half-life, times longer than dasatinib",[1]; hLM assay,~6 times
same,microsomal CLint,"[1]; liver microsomes, human liver microsomal stability, read-out: Intrinsic clearance",24 µL/min/mg
same,microsomal CLint,[2],22 µL/min/mg
same,sensitisation of tumour cells to TNF attack,PANC-1-luc cells,sensitisation of tumour-cells to in-vitro TNF-attack
same,Papp A→B,in vitro,6.8 ×10⁻⁶ cm/s
same,Papp B→A,in vitro,20 ×10⁻⁶ cm/s
same,Papp A→B,MDR1,< 0.8 ×10⁻⁶ cm/s
same,Papp B→A,MDR1,20 ×10⁻⁶ cm/s
"COc1c(F)cccc1NC(=O)c1cnc(Nc2cc(N3CCN(CCO)CC3)nc(C)n2)s1 [Compound B4, N-(3-fluoro-2-methoxyphenyl)-2-((6-(4-(2-hydroxyethyl)piperazin-1-yl)-2-methylpyrimidin-4-yl)amino)thiazole-5-carboxamide]",inhibitory activity,ABL1 wt,potent inhibitor of ABL1 & SRC
same,inhibitory activity,SIK1,strong inhibitor or SIK1 and SIK2
same,inhibitory activity,SIK2,strong inhibitor or SIK1 and SIK2
same,inhibitory activity,SIK3,weak inhibitor of SIK3
same,inhibitory activity,SRC,potent inhibitor of ABL1 & SRC
same,tumour cell cytotoxicity with TNF compared to inhibitor alone,M579-A2-luc cells,fails to exhibit cytotoxicity
"CCOc1cccc(Cl)c1NC(=O)c1cnc(Nc2cc(N3CCN(CCO)CC3)nc(C)n2)s1 [Compound B8, N-(2-Chloro-6-ethoxyphenyl)-2-((6-(4-(2-hydroxyethyl)piperazin-1-yl)-2-methylpyrimidin-4-yl)amino)thiazole-5-carboxamide]",inhibitory activity,SIK1,low inhibitory activity against SIK family members
same,inhibitory activity,SIK2,low inhibitory activity against SIK family members
same,inhibitory activity,SIK3,low inhibitory activity against SIK family members
same,tumour cell cytotoxicity with TNF compared to inhibitor alone,M579-A2-luc cells,fails to exhibit cytotoxicity
Cc1ccc(NC(=O)c2ccc(CN3CCN(C)CC3)cc2)cc1Nc1nccc(-c2cccnc2)n1 [imatinib],tumour response,K562 human CML tumours,failed to produce a comparative response
same,intracranial tumour growth,K562 CML cells; 200 mg/kg/day,failed to inhibit intracranial tumour growth

# Reference: US20210379067A1 (iOmx Therapeutics AG, priority 2018, published 2021)
